{
  "source": "patent US20110250273A1",
  "about": "“COMPOSITIONS OF PROTON PUMP INHIBITORS, KITS AND METHODS OF THEIR USE TO TREAT DIABETES” (Melford Scientific, LLC, priority 2008, published 2011)",
  "assay_type_in_all_cases": "in vivo, human",
  "key": {"[1]": {"tested_on": "Type II diabetic patients", "assay": "2 hour glucose tolerance test during 24 week omeprazole trial (Example 4)", "details": "for C-Peptide 1 hour / C-Peptide 2 hours / Glucose 1 hour / Glucose 2 hours / Insulin 1 hour / Insulin 2 hours: after 75 g glucose", "protocol": "(§1) Seven Type II diabetic patients were administered omeprazole for 24 weeks and data was obtained from fasting and following a 2 hour glucose tolerance test at 8 week intervals and compared to baseline values. Statistical comparisons and analysis were performed with a commercial program, Analyse-it, version 2.20.\n(§2) Subjects: Five males, 2 females, age range 42-68 years, mean age 54+10 years. BMI's ranged from 31 to 49, mean 38+6. All subjects had co-morbid hypertension, four had co-morbid dyslipidemia and two had co-morbid hypothyroidism. All were stable on oral diabetes medications with 7/7 on metformin, 6/7 on pioglitazone (Actos), 4/7 on a DPP-4 inhibitor, sitagliptan (Januvia) and 4/7 on a Sulfonylurea. All subjects received a physical exam, review of systems and a baseline EKG prior to initiating the PPI trial. Subjects were then seen and evaluated at monthly intervals interviewed for adverse events and monitored for medication compliance and maintenance of daily blood glucose logs.\n(§3) Design: All subjects continued on their respective oral antidiabetic medications throughout the study. Baseline data was obtained in a fasting state after an overnight fast. Subjects were then administered 75 g of glucose and blood samples obtained at 1 and 2 hours. Following collection of baseline data, subjects were administered Omeprazole Delayed-Release Capsules USP, (Apotex Inc., Toronto, Canada M9L 179), 40 mg orally twice daily and blood samples again obtained after 8, and 16 weeks. Medications were not taken on the mornings of testing. Following the 16 week sample collection, subjects were increased to 80 mg Omeprazole twice daily and blood samples again obtained at 24 weeks.\n(§4) Measurements: Helicobacter Pylori IgG was obtained on each subject as a baseline as were Hemoglobin A1c and fasting Gastrin. Each 2 hour glucose tolerance test provided fasting glucose, insulin and c-peptide as well as 1 hour and 2 hour glucose and stimulated insulin and c-peptide. All measurements were obtained through a commercial laboratory using standardized analytical methods, Quest Diagnostics Laboratory, 5850 Rogerdale Road, Houston, Tex. 77072."}, "[2]": {"tested_on": "Type II diabetic patients", "assay": "Hemoglobin A1c, Beta cell area and plasma gastrin during 24 week omeprazole trial (Example 4)", "details": "for Beta Cell Area, %: calculated using the 2 hour glucose tolerance value by the method of Meier et al", "protocol": "as §1, §2, §3, §4\nTable 2 summarizes the effects of PPI administration on plasma Gastrin, Hemoglobin A1c and % Beta Cell area (calculated using the 2 hour glucose tolerance value by the method of Meier et al, Diabetes, vol 58, 1595-1603, 2009). […] Hemoglobin A1c, a measure of average blood glucose, was reduced by approximately 0.9% in this cohort, consistent with improved diabetes control (FIG. 5). Finally, the calculated Beta cell mass increased across the treatment period by approximately 25%."}, "[3]": {"tested_on": "Type II diabetic patients", "assay": "Tolerability / adverse events in 24 week omeprazole trial (Example 4)", "details": "all doses (40 mg and 80 mg twice daily), 24 weeks", "source_text": "as §2, §3"}, "[4]": {"tested_on": "Type II diabetic patients", "assay": "Population comparison of HgbA1c in treated diabetic patients with or without a PPI (Examples 1-3)", "details": "Example 2; 53 Metformin only patients, 11 Metformin plus proton pump inhibitor", "protocol": "For a population of 347 Type II diabetic patients with recent HgbA1c measurements of an average 7.53% with a standard deviation of +/−1.77%. All were treated using insulin injections and/or a variety of oral agents, such as the above noted metformin, and other anti-diabetic medicines. The patients were treated for differing periods of time ranging from 3 months to 30 years.\nThe two groups were compared using a two-Sample T test that is a classical statistical test. […] The difference between the two groups was 0.61%, which is a significant difference with a p-value of 0.002.\n64 total patients, of which 53 patients that were treated using only Metformin for the treatment of diabetes and 11 took Metformin and a proton pump inhibitor.\nIn this population, 79 patients were dosed with a sulfonylurea, either alone or in combination with metformin and/or pioglitazone or rosiglitazone. These 79 patients were not provided with insulin or sitagliptin."}, "[5]": {"details": "8 weeks PPI, Omeprazole 40 mg orally twice daily"}, "[6]": {"details": "16 weeks PPI, Omeprazole 40 mg orally twice daily"}, "[7]": {"details": "24 weeks PPI, increased to 80 mg Omeprazole twice daily after week 16"}},
  "note": "Marks after values point to notes of the source that are not given here.",
  "data": [
    {"smiles": "COc1ccc2[nH]c([S+]([O-])Cc3ncc(C)c(OC)c3C)nc2c1", "note": "(centres unmarked) [Omeprazole, 5-methoxy-2-[(4-methoxy-3,5-dimethyl-2-pyridinyl)methyl]sulfinyl-1H-benzimidazole]", "values": [
      {"measurement": "C-Peptide Fasting", "setting": "[1]; [5]", "result": 4.0},
      {"measurement": "Glucose Fasting", "setting": "[1]; [5]", "result": 127},
      {"measurement": "Insulin Fasting", "setting": "[1]; [5]", "result": 13.6},
      {"measurement": "C-Peptide 1 hour", "setting": "[1]; [5]", "result": 7.1},
      {"measurement": "C-Peptide 2 hours", "setting": "[1]; [5]", "result": "8.6***"},
      {"measurement": "Glucose 1 hour", "setting": "[1]; [5]", "result": "235#"},
      {"measurement": "Glucose 2 hours", "setting": "[1]; [5]", "result": 226},
      {"measurement": "Insulin 1 hour", "setting": "[1]; [5]", "result": 38.7},
      {"measurement": "Insulin 2 hours", "setting": "[1]; [5]", "result": 29.9},
      {"measurement": "C-Peptide Fasting", "setting": "[1]; [6]", "result": 3.4},
      {"measurement": "Glucose Fasting", "setting": "[1]; [6]", "result": 136},
      {"measurement": "Insulin Fasting", "setting": "[1]; [6]", "result": 12},
      {"measurement": "C-Peptide 1 hour", "setting": "[1]; [6]", "result": 6.0},
      {"measurement": "C-Peptide 2 hours", "setting": "[1]; [6]", "result": "7.9#"},
      {"measurement": "Glucose 1 hour", "setting": "[1]; [6]", "result": "206*"},
      {"measurement": "Glucose 2 hours", "setting": "[1]; [6]", "result": "229**"},
      {"measurement": "Insulin 1 hour", "setting": "[1]; [6]", "result": 24.7},
      {"measurement": "Insulin 2 hours", "setting": "[1]; [6]", "result": 36.1},
      {"measurement": "C-Peptide Fasting", "setting": "[1]; [7]", "result": 3.6},
      {"measurement": "Glucose Fasting", "setting": "[1]; [7]", "result": 147},
      {"measurement": "Insulin Fasting", "setting": "[1]; [7]", "result": 10.9},
      {"measurement": "C-Peptide 1 hour", "setting": "[1]; [7]", "result": 5.8},
      {"measurement": "C-Peptide 2 hours", "setting": "[1]; [7]", "result": "7.9+"},
      {"measurement": "Glucose 1 hour", "setting": "[1]; [7]", "result": 251},
      {"measurement": "Glucose 2 hours", "setting": "[1]; [7]", "result": 258},
      {"measurement": "Insulin 1 hour", "setting": "[1]; [7]", "result": 25},
      {"measurement": "Insulin 2 hours", "setting": "[1]; [7]", "result": 34},
      {"measurement": "1 and 2 hour c-peptide secretion", "setting": "[1]; after PPI administration", "result": "increased"},
      {"measurement": "Fasting insulin levels", "setting": "[1]; after PPI administration", "result": "unchanged"},
      {"measurement": "Stimulated insulin secretion", "setting": "[1]; at both 1 and 2 hours, after PPI administration", "result": "increased"},
      {"measurement": "Maximum glucose excursion versus baseline", "setting": "[1]; at both 1 and 2 hours, 8 and 16 weeks, statistically significant at 16 weeks", "result": "reduced"},
      {"measurement": "Fasting blood glucose versus baseline", "setting": "[1]; at both 8 and 16 weeks", "result": "reduced"},
      {"measurement": "Percent hemoglobin A1c reduction from baseline", "setting": "[2]; 8, 16 and 24 weeks after taking PPI, FIG. 5", "result": "at least 0.6%"},
      {"measurement": "Hemoglobin A1c, %", "setting": "[2]; [5]", "result": 7.7, "unit": "%"},
      {"measurement": "Plasma Gastrin", "setting": "[2]; [5]", "result": 207, "unit": "pg/mL"},
      {"measurement": "Beta Cell Area, %", "setting": "[2]; 8 weeks PPI", "result": 0.46, "unit": "%"},
      {"measurement": "Hemoglobin A1c, %", "setting": "[2]; [6]", "result": 7.8, "unit": "%"},
      {"measurement": "Plasma Gastrin", "setting": "[2]; [6]", "result": 174, "unit": "pg/mL"},
      {"measurement": "Beta Cell Area, %", "setting": "[2]; 16 weeks PPI", "result": 0.51, "unit": "%"},
      {"measurement": "Beta Cell Area, %", "setting": "[2]; 24 weeks PPI", "result": 0.40, "unit": "%"},
      {"measurement": "Hemoglobin A1c, %", "setting": "[2]; [7]", "result": 7.9, "unit": "%"},
      {"measurement": "Plasma Gastrin", "setting": "[2]; [7]", "result": 232, "unit": "pg/mL"},
      {"measurement": "Calculated Beta cell mass increase", "setting": "[2]; across the treatment period", "result": "approximately 25%"},
      {"measurement": "Change in percent hemoglobin A1c", "setting": "[2]; all patients, statistically significant, FIG. 1", "result": "decrease"},
      {"measurement": "Hemoglobin A1c reduction", "setting": "[2]; in this cohort of seven patients, versus baseline", "result": "approximately 0.9%"},
      {"measurement": "Plasma gastrin versus baseline", "setting": "[2]; long term PPI administration, serum levels gradually reduced over time", "result": "markedly elevated"},
      {"measurement": "Slope of linear best fit of hemoglobin A1c", "setting": "[2]; seven type II diabetics, 24 week trial, FIG. 1", "result": "−0.021 % (HgbA1c) per week"},
      {"measurement": "Adverse events", "setting": "[3]", "result": "no reports of adverse events"},
      {"measurement": "Tolerability", "setting": "[3]", "result": "well tolerated"}
    ]},
    {"smiles": "CN(C)C(=N)N=C(N)N", "note": "[Metformin]", "values": [
      {"measurement": "Average HgbA1c", "setting": "[4]", "result": 7.27, "unit": "%"}
    ]}
  ]
}
